Measured values reported in PMC11745148, “Identification of Cannabidiolic and Cannabigerolic Acids as MTDL AChE, BuChE, and BACE‐1 Inhibitors Against Alzheimer's Disease by In Silico, In Vitro, and In Vivo Studies” (Phytotherapy Research, 2024).
Where two headings read alike, the source gives them in different places.

How the values were obtained:
[1] = target: T1, Acetylcholinesterase from Electrophorus electricus AChE (Electrophorus electricus, UniProt O42275); assay: Cholinesterase activity by the Elmann method, kinetic parameters and Ki on AChE; format: biochemical; details: for inhibition type on AChE: increase in Km without affecting Vmax
T1 construct: purchased Sigma-Aldrich
T1 sequence (O42275 24-633): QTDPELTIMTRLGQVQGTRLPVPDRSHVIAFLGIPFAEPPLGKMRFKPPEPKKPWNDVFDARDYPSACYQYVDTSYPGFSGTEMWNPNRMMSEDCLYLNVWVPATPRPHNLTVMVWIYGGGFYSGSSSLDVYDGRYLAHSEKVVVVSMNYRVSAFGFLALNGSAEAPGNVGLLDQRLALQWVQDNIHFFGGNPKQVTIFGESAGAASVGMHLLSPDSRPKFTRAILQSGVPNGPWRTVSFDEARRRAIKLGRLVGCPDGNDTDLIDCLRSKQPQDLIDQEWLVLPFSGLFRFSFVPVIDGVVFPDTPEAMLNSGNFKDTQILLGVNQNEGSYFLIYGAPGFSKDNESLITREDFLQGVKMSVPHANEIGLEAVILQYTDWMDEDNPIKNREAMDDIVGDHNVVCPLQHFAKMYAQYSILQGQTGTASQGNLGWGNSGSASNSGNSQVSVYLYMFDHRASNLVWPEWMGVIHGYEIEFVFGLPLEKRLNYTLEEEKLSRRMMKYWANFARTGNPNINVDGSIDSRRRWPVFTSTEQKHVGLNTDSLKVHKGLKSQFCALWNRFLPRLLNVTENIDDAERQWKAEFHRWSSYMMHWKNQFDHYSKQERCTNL

[2] = target: T2, butirrylcholinesterase from equine serum BuChE (Equus caballus, UniProt P81908); assay: Cholinesterase activity by the Elmann method, kinetic parameters and Ki on BuChE; format: biochemical; details: for inhibition type on BuChE: decrease of Vmax without affecting Km
T2 construct: purchased Sigma-Aldrich; host or cells: equine serum
T2 sequence (P81908 whole entry): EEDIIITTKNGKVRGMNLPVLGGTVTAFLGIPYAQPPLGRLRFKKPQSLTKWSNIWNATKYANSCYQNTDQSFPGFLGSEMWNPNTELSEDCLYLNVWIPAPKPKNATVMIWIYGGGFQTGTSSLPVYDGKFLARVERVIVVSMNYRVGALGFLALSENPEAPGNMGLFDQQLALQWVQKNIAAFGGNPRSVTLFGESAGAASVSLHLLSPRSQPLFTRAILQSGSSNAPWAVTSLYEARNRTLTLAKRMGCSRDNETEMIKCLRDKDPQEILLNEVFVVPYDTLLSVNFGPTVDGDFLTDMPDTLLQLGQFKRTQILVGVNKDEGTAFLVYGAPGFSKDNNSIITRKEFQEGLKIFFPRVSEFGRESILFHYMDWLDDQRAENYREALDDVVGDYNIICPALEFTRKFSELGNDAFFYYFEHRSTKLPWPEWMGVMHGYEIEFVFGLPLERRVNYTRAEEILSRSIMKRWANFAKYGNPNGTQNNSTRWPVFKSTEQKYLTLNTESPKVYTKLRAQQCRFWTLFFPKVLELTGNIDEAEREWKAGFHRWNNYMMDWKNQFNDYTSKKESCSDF

[3] = target: T3, mouse BACE-1 (Mus musculus, UniProt P56818); assay: BACE-1 activity, fluorimetric method; format: biochemical; details: for IC50: mouse BACE-1, pH 4.5, semilogarithmic plot
T3 construct: purchased Life Technology
T3 sequence (P56818 46-501): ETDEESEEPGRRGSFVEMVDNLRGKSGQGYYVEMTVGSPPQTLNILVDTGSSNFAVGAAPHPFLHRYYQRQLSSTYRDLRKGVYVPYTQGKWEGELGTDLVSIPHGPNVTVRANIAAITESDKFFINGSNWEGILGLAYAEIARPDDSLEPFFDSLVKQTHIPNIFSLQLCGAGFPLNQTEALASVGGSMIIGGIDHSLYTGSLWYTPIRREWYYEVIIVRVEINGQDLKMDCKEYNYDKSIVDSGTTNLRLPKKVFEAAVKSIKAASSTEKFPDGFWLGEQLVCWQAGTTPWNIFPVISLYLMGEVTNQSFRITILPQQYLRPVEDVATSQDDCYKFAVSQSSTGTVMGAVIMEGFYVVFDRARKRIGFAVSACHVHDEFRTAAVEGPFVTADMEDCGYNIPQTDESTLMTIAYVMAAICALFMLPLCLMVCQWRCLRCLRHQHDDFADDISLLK

[4] = target: T4, Human β-amyloid peptide (1–40) (Homo sapiens, UniProt P05067); assay: Aβ 1–40 self-aggregation inhibition assay (thioflavine T); format: biochemical; details: 96 μM peptide, 37°C, 24 h
T4 construct: Human β‐amyloid peptide (1–40, cat. ab120479); purchased Abcam ab120479
T4 sequence (P05067 672-711 limits assumed): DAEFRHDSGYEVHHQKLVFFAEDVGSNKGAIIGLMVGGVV

[5] = target: T5, GPR109A (HCA2) (Homo sapiens, UniProt Q8TDS4); assay: β-arrestin recruitment assay on GPR109A (HCA2-Tango, HTLA-HEK293 cells); format: cell-based; details: HTLA-HEK293 cells expressing HCA2; different doses; 20 h; vs vehicle
T5 construct: Tango fusion module; host or cells: HTLA-HEK293 cells stably expressing β-arrestin2-TEV and tTA-driven luciferase
T5 sequence (Q8TDS4 whole entry, the tested form may be a part): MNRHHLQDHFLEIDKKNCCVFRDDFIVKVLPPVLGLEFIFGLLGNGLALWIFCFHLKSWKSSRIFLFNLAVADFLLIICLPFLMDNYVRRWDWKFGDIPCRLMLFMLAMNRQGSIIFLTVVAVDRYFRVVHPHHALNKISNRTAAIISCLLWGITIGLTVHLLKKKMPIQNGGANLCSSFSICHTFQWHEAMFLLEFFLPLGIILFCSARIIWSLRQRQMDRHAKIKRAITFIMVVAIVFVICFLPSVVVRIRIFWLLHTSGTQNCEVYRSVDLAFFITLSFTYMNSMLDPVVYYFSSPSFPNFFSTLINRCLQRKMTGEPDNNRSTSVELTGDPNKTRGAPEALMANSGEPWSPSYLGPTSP

[6] = tested on: sAβ-injected mice; assay: Novel object recognition test in sAβ-induced AD mouse model; format: in vivo, CD1 male mice; details: 10 mg/kg i.p. repeated, days 3 to 10 after sAβ; test at 1 h; sAβ/veh −0.115 ± 0.030; mean ± SEM
[7] = tested on: sAβ-injected mice; assay: Tail suspension test in sAβ-induced AD mouse model; format: in vivo, CD1 male mice; details: 10 mg/kg i.p. repeated, days 3 to 10 after sAβ; sAβ/veh 74.250 ± 7.465; mean ± SEM
[8] = tested on: LEC-DG pathway (hippocampus) of sAβ-injected mice; assay: In vivo LTP recording in the LEC-DG pathway of sAβ-injected mice; design: species or system CD1 male mice; details: 10 mg/kg i.p. repeated; for fEPSP slope after TBS: 30–60 min after TBS, sAβ/veh 110.92 ± 0.86; for fEPSP slope after TBS / fEPSP amplitude 30–60 min after TBS: relative to baseline; for fEPSP amplitude 30–60 min after TBS: sAβ/veh 110.5 ± 1.73
[9] = tested on: TRPM7; assay: Trpm7 mRNA expression in hippocampus by qPCR; format: in vivo, mouse; details: treatment day 3 to 10 postinduction; upregulated by sAβ
[10] = tested on: PPARα/γ; details: ref D'Aniello et al. [2019]; cited from earlier work
[11] = tested on: TRPM7; details: ref Suzuki et al. [2023]; cited from earlier work
[12] = especially in a tween-based vehicle; ref Anderson et al. [2019]; cited from earlier work
[13] = target: T6, cannabinoid CB2 receptor (CNR2-Tango) (Homo sapiens, UniProt P34972); assay: β-arrestin recruitment assay, positive control CNR2-Tango; format: cell-based
T6 construct: Tango fusion module; expressed in transfected cells; host or cells: HTLA-HEK293 cells
T6 sequence (P34972 whole entry, the tested form may be a part): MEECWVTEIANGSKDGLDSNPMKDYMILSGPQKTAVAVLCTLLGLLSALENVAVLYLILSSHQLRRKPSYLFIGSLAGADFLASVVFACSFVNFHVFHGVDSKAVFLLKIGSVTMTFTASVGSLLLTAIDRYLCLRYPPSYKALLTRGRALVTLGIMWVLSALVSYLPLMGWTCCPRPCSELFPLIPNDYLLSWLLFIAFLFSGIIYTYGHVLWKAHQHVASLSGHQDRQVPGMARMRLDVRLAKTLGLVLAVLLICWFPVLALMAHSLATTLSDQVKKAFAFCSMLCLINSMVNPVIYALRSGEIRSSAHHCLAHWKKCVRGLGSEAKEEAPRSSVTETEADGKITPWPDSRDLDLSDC

[14] = AChE, inhibitor 1.25 µM, Lineweaver-Burk equation, from increase of Km, mean Ki in μM, read-out: Ki LB
[15] = AChE, inhibitor 1.25 µM, Michaelis-Menten interpolation, from increase of Km, mean Ki in μM, read-out: Ki MM
[16] = AChE, inhibitor 2.50 µM, Lineweaver-Burk equation, from increase of Km, mean Ki in μM, read-out: Ki LB
[17] = AChE, inhibitor 3.00 µM, Lineweaver-Burk equation, from increase of Km, mean Ki in μM, read-out: Ki LB
[18] = AChE, inhibitor 3.00 µM, Michaelis-Menten interpolation, from increase of Km, mean Ki in μM, read-out: Ki MM
[19] = mean over experiments, n = 6 CBDA, n = 7 CBGA, competitive inhibition, read-out: calculated Ki, AChE
[20] = BuChE, Exp. 1, inhibitor 10 µM, Lineweaver-Burk equation, from decrease of Vmax, mean Ki in μM, read-out: Ki LB
[21] = BuChE, Exp. 1, inhibitor 10 µM, Lineweaver-Burk equation, no inhibitor 0.295
[22] = BuChE, Exp. 1, inhibitor 10 µM, Michaelis-Menten interpolation, from decrease of Vmax, mean Ki in μM, read-out: Ki MM
[23] = BuChE, Exp. 1, inhibitor 10 µM, Michaelis-Menten interpolation, no inhibitor 0.299
[24] = BuChE, Exp. 2, inhibitor 2.66 µM, Lineweaver-Burk equation, from decrease of Vmax, mean Ki in μM, read-out: Ki LB
[25] = BuChE, Exp. 2, inhibitor 2.66 µM, Lineweaver-Burk equation, no inhibitor 0.220
[26] = BuChE, Exp. 2, inhibitor 2.66 µM, Michaelis-Menten interpolation, from decrease of Vmax, mean Ki in μM, read-out: Ki MM
[27] = mean over experiments, n = 4, noncompetitive inhibition, read-out: calculated Ki, BuChE

| Compound | Ki [1, 14] [µM] | Ki [1, 15] [µM] | Ki [1, 16] [µM] | Ki [1, 17] [µM] | Ki [1, 18] [µM] | inhibition type on AChE [1] | Ki [1, 19] [µM] | Ki [2, 20] [µM] | Vmax LB [2, 21] | Ki [2, 22] [µM] | Vmax MM [2, 23] | Ki [2, 24] [µM] | Vmax LB [2, 25] | Ki [2, 26] [µM] | inhibition type on BuChE [2] | Ki [2, 27] [µM] | IC50 [3] [µM] | IC50 [4] [µM] | β-arrestin recruitment / activation of GPR109A [5] | immobility in tail suspension test [7] [s] | other results |
| --- | --- | --- | --- | --- | --- | --- | --- | --- | --- | --- | --- | --- | --- | --- | --- | --- | --- | --- | --- | --- | --- |
| CCCCCc1cc(O)c(C/C=C(\C)CCC=C(C)C)c(O)c1C(=O)O [CBGA, cannabigerolic acid] | 13.5 | 9.1 | 9.6 | 6.5 | 8.1 | competitive inhibitors | 10.5 ± 2.9 | 39.2 | 0.235 | 26 | 0.216 | 14.1 | 0.185 | 14 | noncompetitive inhibitors | 23.3 ± 12 | 1.4 ± 0.1 | 47.7 ± 2.1 | no recruitment of β‐arrestin and no direct receptor activation | 20.500 ± 6.764 | Ki ([1]; AChE, inhibitor 2.50 µM, Michaelis-Menten interpolation, from increase of Km, mean Ki in μM, read-out: Ki MM): 12.2 µM; Ki ([1]; AChE, inhibitor 3.75 µM, Lineweaver-Burk equation, from increase of Km, mean Ki in μM, read-out: Ki LB): 14.4 µM; Ki ([1]; AChE, inhibitor 3.75 µM, Michaelis-Menten interpolation, from increase of Km, mean Ki in μM, read-out: Ki MM): 26.7 µM; Vmax MM ([2]; BuChE, Exp. 2, inhibitor 2.66 µM, Michaelis-Menten interpolation, no inhibitor 0.249): 0.209; efficiency in inhibiting mBACE-1, CBGA relative to CBDA ([3]; ratio of IC50 values): roughly 4 times; NOR index (recognition index) [6]: 0.183 ± 0.052; fEPSP slope after TBS [8]: 203.21 ± 22.55%; fEPSP amplitude 0–15 min (baseline) [8]: 100.8 ± 0.61%; fEPSP slope 0–15 min (baseline) [8]: 100.94 ± 1.15%; fEPSP amplitude 30–60 min after TBS [8]: 174.34 ± 6.97%; Trpm7 expression in hippocampus [9]: reverted to the basal level; activity on PPARα/γ [10]: dual PPARα/γ agonists; activity on TRPM7 [11]: inhibitors of TRPM7 |
| C=C(C)[C@@H]1CCC(C)=C[C@H]1c1c(O)cc(CCCCC)c(C(=O)O)c1O [CBDA, cannabidiolic acid] | 55 | 32.1 | 10.5 | 10.6 | 3.4 | competitive inhibitors | 7.9 ± 4.3 | 6.1 | 0.112 | 6.6 | 0.119 | 7.5 | 0.162 | 6.4 | noncompetitive inhibitors | 6.7 ± 0.6 | 6.1 ± 0.2 | 57.5 ± 0.8 | no recruitment of β‐arrestin and no direct receptor activation | 64.000 ± 12.523 | Ki ([1]; AChE, inhibitor 1.75 µM, Lineweaver-Burk equation, from increase of Km, mean Ki in μM, read-out: Ki LB): 4.2 µM; Ki ([1]; AChE, inhibitor 1.75 µM, Michaelis-Menten interpolation, from increase of Km, mean Ki in μM, read-out: Ki MM): 13.9 µM; fEPSP slope after TBS [8]: 157.46 ± 14.5%; fEPSP amplitude 0–15 min (baseline) [8]: 99.97 ± 0.024%; fEPSP slope 0–15 min (baseline) [8]: 99.95 ± 0.27%; fEPSP amplitude 30–60 min after TBS [8]: 132.08 ± 2.83%; Trpm7 expression in hippocampus [9]: reverted to the basal level; activity on PPARα/γ [10]: dual PPARα/γ agonists; activity on TRPM7 [11]: inhibitors of TRPM7; blood–brain barrier crossing [12]: can cross the blood–brain barrier |
| CCCC(C)(C)c1ccc2c(c1)OC(C)(C)[C@@H]1CC=C(C)C[C@@H]21 [JWH-133] | – | – | – | – | – | – | – | – | – | – | – | – | – | – | – | – | – | – | – | – | β-arrestin recruitment at CB2 receptor [13]: strong β-arrestin recruitment |
